Bounds are passed on as bounds.

Assay [1] concerns the target Human CB2R (Cannabanoid receptor 2) (Homo sapiens (Human), UniProt P34972). Kind of assay: CB-2 in vitro cAMP assay (HTRF). It counts as cell-based. To be noted: mean where tested more than once. The source says:
(§1) CB1 and CB2 receptors are Gi-coupled GPCR. Activation of CB1 and CB2 receptors results in a decrease in cAMP production. An inverse agonist of the CB1 or CB2 receptor results in the opposite effect, an increase of cAMP production. The principle of this assay is based on HTRF® technology (Homogeneous Time-Resolved Fluorescence). The method is a competitive immunoassay between native cAMP produced by cells and the cAMP labeled with the fluorophore d2. The tracer binding is quantified by a Mab anti-cAMP labeled with Eu3+TBP-NHS Cryptate (supplied as part of the assay kit). The specific signal (i.e. energy transfer) is inversely proportional to the concentration of cAMP in the standard or sample.
(§2) Human CB1R (Cannabanoid receptor 1) was stably transfected in HEK-293 cells (DiscoveRx, cat: 93-0200C1). Human CB2R (Cannabanoid receptor 2) was stably transfected in HEK-293 cells (DiscoveRx, cat: 93-0201C1). Cell cultures were maintained in media: DMEM (Invitrogen Cat#12430-054) supplemented with 10% HI FBS (Invitrogen Cat#16140-071), 1% L-glutamine (Invitrogen Cat#25030-081), 0.2 mg/ml Hygromycin B (Invitrogen Cat#10687-010), 600 μg/mL G418 (Invitrogen Cat#10131-035), and 1× Penn/Strep (Invitrogen 15140-122). After cell expansion, aliquots were cryo-stored in media containing 5% DMSO (Pierce Cat#20684).
(§3) One day prior to experiments media was warmed to 37° C. and the cryo-stored cells were thawed in a 37° C. water bath. The cells were then added to media (10× volume) and the mixture was centrifugated at 1000 RPM for 5 min. The supernate was removed and the cells were re-suspended in media. A sample of the cell suspension was evaluated on a Cedex XS automated cell counter (Innovatis Systems) to determine viable cells/ml. Additional media was added to the cells to achieve a final cell density of 4E5 cells/mL. The cells were then plated into 384 well PDL white solid bottom plates (Greiner, Cat#781945) at 20 μL per well using a Multidrop (Thermo Scientific). Cells were removed from Row P (location of cAMP standards). Two columns of cells were plated into a clear bottom 384 well PDL coated plate (Greiner, Cat#781944) to view confluence the day of the assay. The cell plates were lidded and stored for 15 minutes in a hood, then transferred to an incubator (37° C., 5% CO2, 95% humidity) overnight.
(§4) DMSO was added to all wells of 384 well V bottom polystyrene plate (Greiner, Cat#781280) except to columns 1 and 13, rows O and P and wells M13-M23 and N13-N23. Test compounds (60 μL, 10 mM) were added to Column 1 and 13 (A1 through N1 and A13 through L13). Test compounds were serially diluted 1/3 by transferring and mixing 20 μl sample with 40 μL DMSO.
(§5) DMSO (40 μL) was added to wells of 384 well V bottom polystyrene plate: O2 through O11, M14 through M23, N14 through N23, and O14 through O23. AM630 (also known as [6-iodo-2-methyl-1-[2-(4-morpholinyl)ethyl]-1H-indol-3-yl](4-methoxyphenyl)-methanone, Cayman Chemical, Cat#10006974) (60 μL, 10 mM) was added to O1; and 1-(2,4-dichlorophenyl)-7-[(4-fluorophenyl)methylene]-4,5,6,7-tetrahydro-N-1-piperidinyl-1H-indazole-3-carboxamide (60 μL, 10 mM) was added to N13. The control was serially diluted 1/3 by transferring and mixing 20 μl sample with 40 μL DMSO. This process resulted 11 doses per control, 10 mM to […].
(§6) Cells plated the day prior to the assay in clear bottom plates were viewed on an inverse microscope to ensure confluency in the range of 60-75%. […]
(cAMP levels reflect the balance of adenylyl cyclase and phosphodiesterase activity.)

Assay [2] concerns the target Human CB1R (Cannabanoid receptor 1) (Homo sapiens (Human), UniProt P21554). Kind of assay: CB-1 in vitro cAMP assay (HTRF). Format: cell-based. The following applies: mean where tested more than once.
From the text: as §1, §2, §3, §4, §5, §6

Chain of Human CB2R (Cannabanoid receptor 2) (P34972 whole entry): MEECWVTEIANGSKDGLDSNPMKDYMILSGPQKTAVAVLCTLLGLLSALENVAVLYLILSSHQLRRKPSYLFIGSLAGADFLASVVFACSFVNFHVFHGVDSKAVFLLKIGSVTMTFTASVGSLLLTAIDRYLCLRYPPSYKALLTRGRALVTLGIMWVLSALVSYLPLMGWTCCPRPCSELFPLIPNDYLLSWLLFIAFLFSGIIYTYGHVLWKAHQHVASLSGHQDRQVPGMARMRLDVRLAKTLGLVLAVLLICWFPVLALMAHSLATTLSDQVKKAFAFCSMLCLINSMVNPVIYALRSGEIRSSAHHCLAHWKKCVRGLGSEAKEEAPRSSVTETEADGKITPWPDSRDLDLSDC
Chain of Human CB1R (Cannabanoid receptor 1) (P21554 whole entry): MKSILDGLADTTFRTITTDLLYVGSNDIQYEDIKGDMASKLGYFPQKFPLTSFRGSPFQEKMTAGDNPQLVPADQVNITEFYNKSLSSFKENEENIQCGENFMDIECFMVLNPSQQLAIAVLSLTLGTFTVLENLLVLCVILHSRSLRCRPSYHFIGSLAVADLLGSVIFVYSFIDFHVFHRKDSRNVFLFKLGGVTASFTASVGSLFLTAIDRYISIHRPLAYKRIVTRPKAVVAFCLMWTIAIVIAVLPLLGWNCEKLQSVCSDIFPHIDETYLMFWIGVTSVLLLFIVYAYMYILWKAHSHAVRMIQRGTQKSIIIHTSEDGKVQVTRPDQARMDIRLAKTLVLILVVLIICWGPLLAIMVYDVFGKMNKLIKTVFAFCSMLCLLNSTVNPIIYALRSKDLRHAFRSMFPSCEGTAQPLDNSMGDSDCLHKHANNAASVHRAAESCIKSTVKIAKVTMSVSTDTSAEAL

For `O=S(=O)(NC1CCN(c2ncnc3ccc(C(c4ccc(Cl)cc4)c4ccc(Cl)cc4)cc23)CC1)C(F)(F)F` [Compound #104, N-(1-(6-(bis(4-chlorophenyl)methyl)quinazolin-4-yl)piperidin-4-yl)-1,1,1-trifluoromethanesulfonamide], the EC50 (in general, the concentration at which the effect is half-maximal) is above 10000 nM in assay [1] and 68 nM in assay [2].
For `O=C(O)c1cccc(CCNc2ncnc3ccc(C(c4ccc(Cl)cc4)c4ccc(Cl)cc4)cc23)c1` [Compound #2, 3-(2-((6-(bis(4-chlorophenyl)methyl)quinazolin-4-yl)amino)ethyl)benzoic acid], in that order: 1060 nM and 325 nM.
On the same counts, the results for `O=C(O)c1csc(CN2CCC(Nc3ncnc4ccc(C(c5ccc(Cl)cc5)c5ccc(Cl)cc5)cc34)CC2)c1` [Compound #18, 5-((4-((6-(bis(4-chlorophenyl)methyl)quinazolin-4-yl)amino)piperidin-1-yl)methyl)thiophene-3-carboxylic acid] are 6260 nM and 165 nM.
On the same counts, the results for `FC(F)(F)c1ccc(Nc2ncnc3ccc(C(c4ccc(Cl)cc4)c4nccs4)cc23)cc1` (stereo not drawn) [Compound #144, 6-((4-chlorophenyl)(thiazol-2-yl)methyl)-N-(4-(trifluoromethyl)phenyl)quinazolin-4-amine] are 2750 nM and 163 nM.
With `O=C(O)c1ccc(S(=O)(=O)N2CCC(Nc3ncnc4ccc(C(c5ccc(Cl)cc5)c5ccc(Cl)cc5)cc34)CC2)cc1Cl` [Compound #23, 4-((4-((6-(bis(4-chlorophenyl)methyl)quinazolin-4-yl)amino)piperidin-1-yl)sulfonyl)-2-chlorobenzoic acid], the figures for the concentration giving a half-maximal response (EC50) in assay [1] and in assay [2] were 434 nM and 19 nM, respectively.
For `O=C(O)c1ccc(S(=O)(=O)N2CCC(Nc3ncnc4ccc(C(c5ccc(Cl)cc5)c5ccc(Cl)cc5)cc34)CC2)s1` [Compound #25, 5-((4-((6-(bis(4-chlorophenyl)methyl)quinazolin-4-yl)amino)piperidin-1-yl)sulfonyl)thiophene-2-carboxylic acid], in that order: 278 nM and 9 nM.
For `O=C(O)c1ccc(C(c2ccc(Cl)cc2)c2ccc3ncnc(NC4CCN(S(=O)(=O)C(F)(F)F)CC4)c3c2)cc1` (stereo not drawn) [Compound #16, 4-((4-chlorophenyl)(4-((1-((trifluoromethyl)sulfonyl)piperidin-4-yl)amino)quinazolin-6-yl)methyl)benzoic acid], in that order: above 10000 nM and 343 nM.
On the same counts, the results for `COC(=O)c1ccc(N2CCC(Nc3ncnc4ccc(C(c5ccc(Cl)cc5)c5ccc(Cl)cc5)cc34)CC2)cc1` [Compound #94, methyl 4-(4-((6-(bis(4-chlorophenyl)methyl)quinazolin-4-yl)amino)piperidin-1-yl)benzoate] are 68 nM and 4 nM.
With `FC(F)(F)CN1CCC(Nc2ncnc3ccc(C(c4ccc(Cl)cc4)c4ccc(Cl)cc4)cc23)CC1` [Compound #123, 6-(bis(4-chlorophenyl)methyl)-N-(1-(2,2,2-trifluoroethyl)piperidin-4-yl)quinazolin-4-amine], the 50% effective concentration (EC50) came out at 490 nM in assay [1] and 2 nM in assay [2].
For `Oc1ccc(N2CCC(Nc3ncnc4ccc(C(c5ccc(Cl)cc5)c5ccc(Cl)cc5)cc34)CC2)cc1` [Compound #32, 4-(4-((6-(bis(4-chlorophenyl)methyl)quinazolin-4-yl)amino)piperidin-1-yl)phenol], the concentration for a half-maximal effect (EC50) in assay [1] was 371 nM; in assay [2] it was 15 nM.
On the same counts, the results for `O=C(NCCO)c1cccc(N2CCC(Nc3ncnc4ccc(C(c5ccc(Cl)cc5)c5ccc(Cl)cc5)cc34)CC2)c1` [compound 83, 3-(4-(6-(bis(4-chlorophenyl)methyl)quinazolin-4-ylamino)piperidin-1-yl)-N-(2-hydroxyethyl)benzamide] are 3500 nM and 85 nM.
For `COC(=O)c1cccc(N2CCC(Nc3ncnc4ccc(C(c5ccc(Cl)cc5)c5ccc(Cl)cc5)cc34)CC2)c1` [compound 97, methyl 3-(4-(6-(bis(4-chlorophenyl)methyl)quinazolin-4-ylamino)piperidin-1-yl)benzoate], in that order: above 10000 nM and 83 nM.
On the same counts, the results for `CC(Nc1ncnc2ccc(C(c3ccc(Cl)cc3)c3ccc(Cl)cc3)cc12)c1ccc(C(F)(F)F)cc1` (stereo not drawn) [compound 116, 6-(bis(4-chlorophenyl)methyl)-N-(1-(4-(trifluoromethyl)phenyl)ethyl)quinazolin-4-amine] are 2500 nM and 8 nM.
For the molecule `O=S(=O)(c1ccc(Nc2ncnc3ccc(C(c4ccc(Cl)cc4)c4nccs4)cc23)cc1)C(F)(F)F` (stereo not drawn) [Compound #142, 6-((4-chlorophenyl)(thiazol-2-yl)methyl)-N-(4-((trifluoromethyl)sulfonyl)phenyl)quinazolin-4-amine], the EC50 in assay [1] was above 10000 nM; in assay [2], 574 nM.
Consider `NCCOc1nc(NCc2ccc(C(F)(F)F)cc2)c2cc(C(c3ccc(Cl)cc3)c3ccc(Cl)cc3)ccc2n1` [Compound #72, 2-(2-aminoethoxy)-6-(bis(4-chlorophenyl)methyl)-N-(4-(trifluoromethyl)benzyl)quinazolin-4-amine], for which the half-maximal effective concentration (EC50) is above 10000 nM in assay [1] and 51 nM in assay [2].
On the same counts, the results for `Clc1ccc(C(c2ccc(Cl)cc2)c2ccc3ncnc(NC4CCN(c5ccccc5)CC4)c3c2)cc1` [Compound #137, 6-(bis(4-chlorophenyl)methyl)-N-(1-phenylpiperidin-4-yl)quinazolin-4-amine] are 280 nM and 2 nM.
For `N#CCCOCCOc1nc(NCc2cccc(C(F)(F)F)c2)c2cc(C(c3ccc(Cl)cc3)c3ccc(Cl)cc3)ccc2n1` [Compound #50, 3-(2-((6-(bis(4-chlorophenyl)methyl)-4-((3-(trifluoromethyl)benzyl)amino)quinazolin-2-yl)oxy)ethoxy)propanenitrile], in that order: above 10000 nM and 11 nM.
On the same counts, the results for `NC(=O)c1cccc(CNc2ncnc3ccc(C(c4ccc(Cl)cc4)c4ccc(Cl)cc4)cc23)c1` [Compound #57, 3-(((6-(bis(4-chlorophenyl)methyl)quinazolin-4-yl)amino)methyl)benzamide] are 4950 nM and 215 nM.
For the molecule `O=S(=O)(N1CCC(Nc2nc(Cl)nc3ccc(C(c4ccc(Cl)cc4)c4ccc(Cl)cc4)cc23)CC1)C(F)(F)F` [Compound 200], the concentration giving a half-maximal response (EC50) came out at 6500 nM in assay [1] and 9 nM in assay [2].
For `COc1nc(NC2CCN(S(=O)(=O)c3ccc(C(=O)O)cc3)CC2)c2cc(C(c3ccc(Cl)cc3)c3ccc(Cl)cc3)ccc2n1` [Compound #46, 4-((4-((6-(bis(4-chlorophenyl)methyl)-2-methoxyquinazolin-4-yl)amino)piperidin-1-yl)sulfonyl)benzoic acid], in that order: 616 nM and 31 nM.
On the same counts, the results for `OCCOc1nc(NCc2cccc(C(F)(F)F)c2)c2cc(C(c3ccc(Cl)cc3)c3ccc(Cl)cc3)ccc2n1` [Compound #55, 2-((6-(bis(4-chlorophenyl)methyl)-4-((3-(trifluoromethyl)benzyl)amino)quinazolin-2-yl)oxy)ethanol] are 4440 nM and 13 nM.

These data come from US9682955B2, “Quinazoline derivatives useful as CB-1 inverse agonists” (Janssen Pharmaceutica NV, priority 2014, dated 2017).
